The text below walks through data of patent publication US7902219B2, “2-benzoylimidazopyridine derivatives, preparation and therapeutic use thereof” (Sanofi-Aventis, priority 2006, dated 2011).

One experiment concerns the target T1, murine Nurr1 receptor (Mus musculus, UniProt Q06219).
T1 construct: endogenously expressing the murine Nurr1 receptor; host or cells: Neuro-2A (N2A) mouse neuroblastoma cells stably transfected with 8NBRE-luciferase
Nature of the experiment: In vitro activity on N2A cells (NBRE-luciferase reporter). It is filed as cell-based. Particulars: N2A-8NBRE-luciferase cells, products incubated 24 hours. The protocol:
Evaluation of the in vitro Activity on N2A Cells
The tests consisted in evaluating the in vitro activity of the compounds of the invention on a cell line (N2A) endogenously expressing the murine Nurr1 receptor and stably transfected with the NOT binding response element (NBRE) coupled to the luciferase reporter gene. The EC50 values are between 0.01 and 1000 nM. The tests were performed according to the procedure described hereinbelow.
The cell line Neuro-2A is obtained from a standard commercial source (ATCC). The clone Neuro-2A was obtained from a spontaneous tumor originating from a strain of albino mice A by R. J Klebe et al. This line Neuro-2A is then stably transfected with 8NBRE-luciferase. The N2A-8NBRE cells are cultured to the point of confluence in 75 cm^2 culture flasks containing DMEM supplemented with 10% fetal calf serum, 4.5 g/L of glucose and 0.4 mg/ml of geneticin. After culturing for one week, the cells are recovered with 0.25% trypsin for 30 seconds and then resuspended in DMEM without phenol red, containing 4.5 g/L of glucose and 10% Hyclone defatted serum, and placed in white, transparent-based 96-well plates. The cells are deposited at a rate of 60 000 per well in 75 μL for 24 hours before adding the products. The products are applied in 25 μL and incubated for a further 24 hours. On the day of measurement, an equivalent volume (100 μL) of Steadylite is added to each well, and the wells are then left for 30 minutes to obtain complete lysis of the cells and maximum production of the signal. The plates are then measured in a microplate luminescence counter, after having been sealed with an adhesive film. The products are prepared in the form of a 10^−2 M stock solution, and then diluted in 100% of DMSO. Each concentration of product is prediluted in culture medium before incubation with the cells thus containing 0.625% final of DMSO.
A general note: In a reporter assay the amount or activity of a reporter protein is the signal.

A further experiment has as its system human NOT receptor. Nature of the experiment: Binding to the human NOT receptor by SPR (surface plasmon resonance, Biacore S51). To be noted: immobilized GST-NOT (NOT-FL) and His-Thr-NOT 329-598, 3.75 to 0.1 μM, 4° C. The protocol: Evaluation of the Binding to the Human NOT Receptor The direct binding between compounds of the invention and the human NOT receptor was evaluated using the SPR (surface plasmon resonance) technique. In this test, the protein is immobilized covalently on the matrix and the test molecule is injected into the chamber containing the sensor chip. The signal is directly proportional to the amount of product bound to the protein. The binding tests were performed in a Biacore S51 machine (Biacore Inc., Piscataway N.J.). The entire GST-NOT protein (NOT-FL) was supplied by Invitrogen (PV3265). The domain for binding to the NOT ligand (His-Thr-NOT 329-598) was expressed and purified as described in Nature 423, 555-560. The two proteins, diluted to a concentration of 20 μg/ml in pH 5.0 acetate buffer containing 5 mM of DTT, were immobilized on a surface of carboxymethyl 5′ dextran (CM5 sensor chip, Biacore Inc.) via amine coupling according to the protocol recommended by Biacore, eluting with an HBS-N buffer (10 mM HEPES, 0.15 M NaCl, 3 mM EDTA, pH 7.4). Approximately 10 000-15 000 resonance units (RU) of the proteins are captured on the surface of the sensor chip CM5. […] Each concentration of product is injected at 4° C. for 1 minute at 30 μl/min. The dissociation was recorded for 5 minutes without any other surface regeneration procedure. […]
(In general: SPR reads the build-up and loss of mass on a sensor chip optically.)

T1 sequence (Q06219 whole entry): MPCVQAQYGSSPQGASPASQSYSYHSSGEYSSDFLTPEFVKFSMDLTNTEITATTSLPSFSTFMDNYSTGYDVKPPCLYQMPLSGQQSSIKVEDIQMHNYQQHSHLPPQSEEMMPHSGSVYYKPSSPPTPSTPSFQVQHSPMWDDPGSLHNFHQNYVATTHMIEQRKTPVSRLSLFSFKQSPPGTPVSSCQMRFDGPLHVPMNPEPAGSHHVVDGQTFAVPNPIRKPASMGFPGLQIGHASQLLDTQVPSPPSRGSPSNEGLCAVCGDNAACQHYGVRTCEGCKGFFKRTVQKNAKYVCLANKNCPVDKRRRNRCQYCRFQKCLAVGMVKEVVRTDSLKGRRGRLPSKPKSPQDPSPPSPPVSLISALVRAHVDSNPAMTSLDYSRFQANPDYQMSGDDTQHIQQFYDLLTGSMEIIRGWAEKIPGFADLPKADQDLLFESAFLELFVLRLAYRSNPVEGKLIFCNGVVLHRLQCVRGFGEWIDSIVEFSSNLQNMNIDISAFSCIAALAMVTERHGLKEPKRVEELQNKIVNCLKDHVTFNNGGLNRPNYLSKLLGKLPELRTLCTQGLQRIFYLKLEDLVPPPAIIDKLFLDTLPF

`Cc1ccc2nc(C(=O)c3ccccc3)cn2c1.Cl` [Compound 1, (6-Methylimidazo[1,2-a]pyridin-2-yl)(phenyl)methanone hydrochloride (1:1)]: the concentration for a half-maximal effect (EC50) (commonly the concentration at which the effect is half-maximal) on murine Nurr1 receptor was 0.3 nM. For the same compound, the “affinity (classified by maximum binding level and kinetic parameters of binding to the immobilized protein)” value in the experiment with human NOT receptor was “moderate affinity”.

Regarding `Br.CC(C)(O)c1ccc2nc(C(=O)c3ccccc3)cn2c1` [Compound 3, [6-(1-Hydroxy-1-methylethyl)imidazo[1,2-a]pyridin-2-yl] (phenyl)-methanone hydrobromide (1:1)], the midpoint of the response on murine Nurr1 receptor, the EC50, lay at 0.2 nM. Also, the “affinity (classified by maximum binding level and kinetic parameters of binding to the immobilized protein)” value in the experiment on human NOT receptor was “moderate affinity”.

On to `O=C(c1ccccc1)c1cn2cc(-c3ccccc3)ccc2n1` [Compound 6, Phenyl(6-phenylimidazo[1,2-a]pyridin-2-yl)methanone], for which, on murine Nurr1 receptor, the EC50 turned out to be 0.02 nM.
